Active and inactive are the calls of the source. No cut-off for these calls is given here.

The values that follow come from ChEMBL document CHEMBL5346960, “Quantitative Attribution of the Protective Effects of Aminosterols against Protein Aggregates to Their Chemical Structures and Ability to Modulate Biological Membranes” (2023).

In assay [1] the test system is Lipid bilayer. Nature of the assay: Binding affinity to large unilamellar vesicles liposome model assessed as saturation concentration by measuring increase in LUV mass incubated for 15 mins by light scattering analysis. The following applies: filed as modulator.
The subject of assay [2] is Lipid bilayer. Nature of the assay: Binding affinity to large unilamellar vesicles liposome model assessed as saturation concentration by measuring increase in incorporated compound mass incubated for 15 mins by light scattering analysis. Particulars: filed as modulator.
The test system of assay [3] is Lipid bilayer. The assay can be described thus: Binding affinity to large unilamellar vesicles liposome model assessed as increase in LUV diameter incubated for 15 mins by light scattering analysis.
In assay [4] the test system is Lipid bilayer. Nature of the assay: Binding affinity to large unilamellar vesicles liposome model assessed as increase in LUV size incubated for 15 mins by light scattering analysis. Particulars: filed as modulator.
Assay [5] deals with Lipid bilayer. The assay can be described thus: Binding affinity to large unilamellar vesicles liposome model assessed as increase in transition temperature […] (reference value: 24.5 +/- 2 degreeC). The following applies: filed as modulator.
The subject of assay [6] is Lipid bilayer. Nature of the assay: Induction of membrane redistribution in large unilamellar vesicles liposome model assessed as mean shortest distance between BODIPY-FL C5-GM1 and BODIPY-542/563 C11-CHOL at 5 uM by FRET assay relative to control. The following applies: filed as modulator.
The subject of assay [7] is Lipid bilayer. The assay can be described thus: Induction of membrane redistribution in large unilamellar vesicles liposome model assessed as mean shortest distance between BODIPY-FL-CHOL and BODIPY-542/563 C11-CHOL at 5 uM by FRET assay relative to control. The following applies: filed as modulator.
Assay [8] concerns Lipid bilayer. Nature of the assay: Displacement of alpha-synuclein from DMPS large unilamellar vesicles liposome model incubated for 15 mins by Far-UV CD spectroscopy. Particulars: filed as modulator, dose <= 70.0 µM.
Assay [9] has as its system SH-SY5Y. Nature of the assay: Protection against human SH-SY5Y cells assessed as decrease in ADDL-induced cytosolic calcium level incubated for 15 mins by Fluo-4 AM dye based scanning confocal microscopic analysis. Particulars: dose 0.05-5 µM. Type of assay: functional, cell-based.
In assay [10] the test system is SH-SY5Y. The assay can be described thus: Protection against human SH-SY5Y cells assessed as decrease in ADDL-induced cytosolic calcium level at 5 uM incubated for 15 mins by Fluo-4 AM dye based scanning confocal microscopic analysis. Type of assay: functional. The arrangement: scale not given: the % may be the effect or the level left. The following applies: 0.25 h.

For assay [11], the system named is Lipid bilayer. Nature of the assay: Induction of membrane redistribution in large unilamellar vesicles liposome model assessed as mean shortest distance between BODIPY-FL C5-GM1 and BODIPY-542/563 C11-CHOL at 5 uM by FRET assay (reference value: 65 +/- 1 Angstrom). Particulars: filed as modulator.
For assay [12], the system named is Lipid bilayer. Nature of the assay: Induction of membrane redistribution in large unilamellar vesicles liposome model assessed as mean shortest distance between BODIPY-FL-CHOL and BODIPY-542/563 C11-CHOL at 5 uM by FRET assay (reference value: 72 +/- 1 Angstrom). The following applies: filed as modulator.
For assay [13], the system named is Lipid bilayer. Nature of the assay: Induction of membrane redistribution in large unilamellar vesicles liposome model assessed as mean shortest distance between BODIPY-FL-SM and BODIPY-542/563 C11-CHOL at 5 uM by FRET assay (reference value: 69 +/- 1 Angstrom). Particulars: filed as modulator.
The test system of assay [14] is Lipid bilayer. The assay can be described thus: Induction of membrane redistribution in large unilamellar vesicles liposome model assessed as mean shortest distance between BODIPY-FL-DOPC and BODIPY-542/563 C11-CHOL at 5 uM by FRET assay (reference value: 70 +/- 2 Angstrom). Particulars: filed as modulator.
Assay [15] relates to Lipid bilayer. The assay can be described thus: Binding affinity to large unilamellar vesicles liposome model assessed as saturation concentration by microfluidic analysis. The following applies: filed as modulator.

Take `CC(C)[C@@H](CC[C@@H](C)[C@H]1CC[C@H]2[C@@H]3[C@H](O)C[C@H]4C[C@@H](NCCCNCCCCN)CC[C@]4(C)[C@H]3CC[C@]12C)OS(=O)(=O)O` [SQUALAMINE]: the Activity in assay [1] was 12 µM; in [2], 15 µM; in assay [6] it was 50%; in assay [7] it was 57%; in [8], “Dose-Dependent Effect”; in assay [9], “Dose-Dependent Effect”. Further, the Activity amounted to 100% in assay [10]; 72 Angstrom in [11]; 64 Angstrom in assay [12]; 72 Angstrom in assay [13]; 68 Angstrom in assay [14]. For the same compound, the outcome in assay [3] was inactive. In assay [4], the outcome was Active. For the same compound, the T in assay [5] was found to be 35 °C.
In the case of `C[C@H](CCC[C@H](C)C(=O)O)[C@H]1CC[C@H]2[C@@H]3[C@H](O)C[C@H]4C[C@@H](NCCCNCCCCNCCCN)CC[C@]4(C)[C@H]3CC[C@]12C`, the Activity in assay [1] is 43 µM; in [2], 43 µM; in assay [6], 57%; in [7], 64%; in assay [8], “Dose-Dependent Effect”; in assay [9], “Dose-Dependent Effect”. Besides, the Activity was 100% in assay [10]; 73 Angstrom in [11]; 63 Angstrom in [12]; 69 Angstrom in [13]; 67 Angstrom in [14]. Moreover, the result in [3] was inactive. Further, the result in assay [4] was Active. Further, the T in [5] amounted to 46 °C.
Consider `CC(C)[C@@H](CC[C@@H](C)[C@H]1CC[C@H]2[C@@H]3[C@H](O)C[C@H]4C[C@@H](NCCCNCCCCNCCCN)CC[C@]4(C)[C@H]3CC[C@]12C)OS(=O)(=O)O` [TRODUSQUEMINE], for which the Activity was 35 µM in [1]; 35 µM in [2]; 28 µM in assay [15]; 100% in assay [6]; 100% in assay [7]; “Dose-Dependent Effect” in [8]. Also, the Activity result was “Dose-Dependent Effect” in assay [9]; 100% in [10]; 79 Angstrom in assay [11]; 58 Angstrom in assay [12]; 67 Angstrom in assay [13]; 68 Angstrom in [14]. For the same compound, the outcome in [3] was inactive. Also, in [4], the result was Active. In addition, the T in assay [5] turned out to be 46 °C.
